Data on 5 compounds can be found in US6461997B1, “Triazole sulfones having herbicidal activity” (Monsanto Technology LLC, priority 1999, dated 2002).

Structures are written as SMILES.

The subject of one experiment is POLCO (wild buckwheat). Briefly: Pre-emergence herbicidal activity, cool season. Format: in vivo, Polygonum convolvulus. To be noted: lowest tested rate with 80% or greater inhibition; rates 300, 100, 30, 10 g/ha; about 14 days. The protocol: (§1) Tables 5 to 8 summarize results of tests conducted as described below to determine the pre-emergence herbicidal activity, in the form of a GR80 value, of illustrative compounds of this invention. […] Compounds of the invention were typically applied at rates of 300, 100, 30, and 10 g/ha. Where herbicidal activity was evident but 80% inhibition was not achieved at the highest rate tested, an asterisk (*) is shown in the following tables.
(§2) The pre-emergence tests were conducted by the following procedure. Topsoil was sieved to pass through a 1.27 cm screen. Fertilizer was added to the topsoil and the mixture was then sterilized by heating. The topsoil mixture was placed in a pot and compacted to a depth of 1.0 to 1.25 cm from the top of the pot. Seeds of each of several monocotyledonous and dicotyledonous annual plant species were placed on top of the soil. Additional soil was subsequently placed over the seeds to level-fill the pot. A known amount of each test compound dissolved or suspended in an appropriate organic solvent was diluted with a 50:50 mix of acetone and water and applied to the surface of the soil. After treatment the plants were placed in a greenhouse where they received 0.64 cm of overhead irrigation. All subsequent watering consisted of a light overhead mist and/or subirrigation as needed for germination and growth. Tables 5 and 6 below relate to warm season plant species which were placed after pre-emergence treatment in a greenhouse with a 30/21° C. day/night temperature regime. Tables 7 and 8 below relates to cool season plant species placed after pre-emergence treatment in a greenhouse or growth chamber with an 18/13° C. day/night temperature regime.
(§3) Approximately 14 days after planting and treating, the plants were observed and herbicidal efficacy recorded as percent inhibition by comparison with untreated plants.
(§4) The plant species usually regarded as weeds which were utilized in the tests are identified in the tables below according to the following legend, in which “d” indicates a dicotyledonous species and “m” a monocotyledonous species. All monocotyledonous species included in the tests herein are grasses.

For another experiment, the system named is SASKR (russian thistle). Briefly: Pre-emergence herbicidal activity, cool season. It is filed as in vivo, Salsola kali. The note with it: lowest tested rate with 80% or greater inhibition; rates 300, 100, 30, 10 g/ha; about 14 days. The protocol: as §1, §2, §3, §4
For experiment [1], the system named is LAMPU (purple deadnettle). Briefly: Pre-emergence herbicidal activity, cool season. Format: in vivo, Lamium purpureum. To be noted: lowest tested rate with 80% or greater inhibition; rates 300, 100, 30, 10 g/ha; about 14 days. The procedure: as §1, §2, §3, §4
The subject of experiment [2] is CHEAL (common lambsquarters). The experiment is described as follows: Pre-emergence herbicidal activity, warm season. Format: in vivo, Chenopodium album. The note with it: GR80 = lowest tested rate (300, 100, 30, 10 g/ha) with 80% or greater inhibition; approx. 14 days after treating; 30/21° C. The procedure: as §1, §2, §3, §4
A further experiment concerns SINAR (wild mustard). Briefly: Pre-emergence herbicidal activity, cool season. To be noted: lowest tested rate with 80% or greater inhibition; rates 300, 100, 30, 10 g/ha; about 14 days. It is filed as in vivo, Sinapis arvensis. The protocol:
as §1, §2, §3, §4

Experiment [3] deals with PANMI (wild proso millet). Briefly: Pre-emergence herbicidal activity, warm season. Format: in vivo, Panicum miliaceum. To be noted: GR80 = lowest tested rate (300, 100, 30, 10 g/ha) with 80% or greater inhibition; approx. 14 days after treating; 30/21° C. The procedure: as §1, §2, §3, §4
Experiment [4] deals with GALAP (catchweed bedstraw). The experiment is described as follows: Pre-emergence herbicidal activity, cool season. It is filed as in vivo, Galium aparine. To be noted: lowest tested rate with 80% or greater inhibition; rates 300, 100, 30, 10 g/ha; about 14 days. The protocol:
as §1, §2, §3, §4

The subject of experiment [5] is VERPE (creeping speedwell). Briefly: Pre-emergence herbicidal activity, cool season. Format: in vivo, Veronica persicaria. To be noted: lowest tested rate with 80% or greater inhibition; rates 300, 100, 30, 10 g/ha; about 14 days. The protocol:
as §1, §2, §3, §4

A further experiment concerns STEME (common chickweed). Briefly: Pre-emergence herbicidal activity, cool season. The note with it: lowest tested rate with 80% or greater inhibition; rates 300, 100, 30, 10 g/ha; about 14 days. It is filed as in vivo, Stellaria media. The procedure: as §1, §2, §3, §4
A further experiment has as its system ALOMY (blackgrass). The experiment is described as follows: Pre-emergence herbicidal activity, cool season. Format: in vivo, Alopecurus myosuroides. To be noted: GR80 = lowest tested rate (300, 100, 30, 10 g/ha) with 80% or greater inhibition; approx. 14 days after treating; 18/13° C. The procedure: as §1, §2, §3, §4
In a further experiment the test system is DIGSA (large crabgrass). Briefly: Pre-emergence herbicidal activity, warm season. It is filed as in vivo, Digitaria sanguinalis. The note with it: GR80 = lowest tested rate (300, 100, 30, 10 g/ha) with 80% or greater inhibition; approx. 14 days after treating; 30/21° C. The protocol:
as §1, §2, §3, §4

For experiment [6], the system named is AGSST (creeping bentgrass). Briefly: Pre-emergence herbicidal activity, cool season. It is filed as in vivo, Agrostis stolonifera. To be noted: GR80 = lowest tested rate (300, 100, 30, 10 g/ha) with 80% or greater inhibition; approx. 14 days after treating; 18/13° C. The procedure: as §1, §2, §3, §4
The next experiment concerns SETVI (green foxtail). Briefly: Pre-emergence herbicidal activity, cool season. Format: in vivo, Setaria viridis. To be noted: GR80 = lowest tested rate (300, 100, 30, 10 g/ha) with 80% or greater inhibition; approx. 14 days after treating; 18/13° C. The protocol:
as §1, §2, §3, §4

On to `CN(C(=O)n1cnc(S(=O)(=O)C(F)F)n1)c1ccccc1` [Example 27], for which the “Pre-emergence activity GR80, POLCO” value with POLCO (wild buckwheat) was 30 g/ha. Besides, the “Pre-emergence activity GR80, SASKR” value in the experiment on SASKR (russian thistle) stood at 300 g/ha. Besides, the “Pre-emergence activity GR80, LAMPU” value in experiment [1] came to 300 g/ha. Besides, the “Pre-emergence activity (GR80) CHEAL” value in [2] stood at 300 g/ha. Besides, in the experiment on SINAR (wild mustard), the “Pre-emergence activity GR80, SINAR” value is “[empty]”. Further, the “Pre-emergence activity (GR80) PANMI” value in experiment [3] was 100 g/ha. Further, the “Pre-emergence activity GR80, GALAP” value in experiment [4] is 300 g/ha. Moreover, the “Pre-emergence activity GR80, VERPE” value in [5] came out at 300 g/ha. In addition, in the experiment on STEME (common chickweed), the “Pre-emergence activity GR80, STEME” value was “[empty]”. Further, the “Pre-emergence activity (GR80) ALOMY” value in the experiment on ALOMY (blackgrass) is recorded as 300 g/ha.
Consider `C#CCN(C)C(=O)n1cnc(S(=O)(=O)C(F)F)n1` [Example 31], for which, in the experiment with POLCO (wild buckwheat), the “Pre-emergence activity GR80, POLCO” value was “[empty]”. The “Pre-emergence activity GR80, SASKR” value in the experiment on SASKR (russian thistle) was “[empty]”. Moreover, the “Pre-emergence activity GR80, LAMPU” value in experiment [1] is “[empty]”. In addition, the “Pre-emergence activity GR80, SINAR” value in the experiment on SINAR (wild mustard) was “[empty]”. In the experiment with DIGSA (large crabgrass), the “Pre-emergence activity (GR80) DIGSA” value was 300 g/ha. Also, the “Pre-emergence activity GR80, GALAP” value in experiment [4] is “[empty]”. In [5], the “Pre-emergence activity GR80, VERPE” value was “[empty]”. The “Pre-emergence activity GR80, STEME” value with STEME (common chickweed) is “[empty]”.
In the case of `O=C(N1CCOCC1)n1cnc(S(=O)(=O)C(F)(F)Br)n1` [Example 36], the “Pre-emergence activity GR80, POLCO” value in the experiment on POLCO (wild buckwheat) is “[empty]”. Besides, the “Pre-emergence activity GR80, SASKR” value with SASKR (russian thistle) was “[empty]”. Besides, in [1], the “Pre-emergence activity GR80, LAMPU” value stood at 300 g/ha. Also, the “Pre-emergence activity (GR80) CHEAL” value in experiment [2] came to 300 g/ha. The “Pre-emergence activity GR80, SINAR” value with SINAR (wild mustard) was “[empty]”. In addition, the “Pre-emergence activity GR80, GALAP” value in experiment [4] was 300 g/ha. For the same compound, the “Pre-emergence activity GR80, VERPE” value in [5] was “[empty]”. In addition, the “Pre-emergence activity GR80, STEME” value with STEME (common chickweed) is “[empty]”.
`C=CCN(C)C(=O)n1cnc(S(=O)(=O)C(F)(F)Br)n1` [Example 41]: the “Pre-emergence activity GR80, POLCO” value with POLCO (wild buckwheat) is “[empty]”. Moreover, the “Pre-emergence activity GR80, SASKR” value with SASKR (russian thistle) was “[empty]”. The “Pre-emergence activity GR80, LAMPU” value in experiment [1] is “[empty]”. Also, in experiment [6], the “Pre-emergence activity (GR80) AGSST” value came out at 30 g/ha. For the same compound, in the experiment with SINAR (wild mustard), the “Pre-emergence activity GR80, SINAR” value is “[empty]”. Also, in experiment [3], the “Pre-emergence activity (GR80) PANMI” value is 300 g/ha. In [4], the “Pre-emergence activity GR80, GALAP” value was “[empty]”. Further, the “Pre-emergence activity GR80, VERPE” value in experiment [5] was found to be 100 g/ha. For the same compound, the “Pre-emergence activity GR80, STEME” value with STEME (common chickweed) was “[empty]”. In addition, the “Pre-emergence activity (GR80) ALOMY” value in the experiment on ALOMY (blackgrass) came to 300 g/ha.
`CON(C)C(=O)n1cnc(S(=O)(=O)C(F)(F)Br)n1` [Example 45]: in the experiment on POLCO (wild buckwheat), the “Pre-emergence activity GR80, POLCO” value came to 100 g/ha. Also, in the experiment on SASKR (russian thistle), the “Pre-emergence activity GR80, SASKR” value is “[empty]”. The “Pre-emergence activity GR80, LAMPU” value in experiment [1] was “[empty]”. Further, the “Pre-emergence activity (GR80) CHEAL” value in experiment [2] is 300 g/ha. In the experiment on SINAR (wild mustard), the “Pre-emergence activity GR80, SINAR” value was 300 g/ha. Besides, the “Pre-emergence activity GR80, GALAP” value in experiment [4] was “[empty]”. For the same compound, the “Pre-emergence activity GR80, VERPE” value in [5] was “[empty]”. In addition, the “Pre-emergence activity GR80, STEME” value in the experiment on STEME (common chickweed) turned out to be 300 g/ha. Moreover, in the experiment with SETVI (green foxtail), the “Pre-emergence activity (GR80) SETVI” value stood at 300 g/ha.
